Measured values as given in the NIST ThermoML archive (doi:10.1021/je060441j).

Experiment: xn = mol fraction of the nth substance listed
Conditions: 101 kPa, Liquid

ClC(Cl)Cl [trichloromethane] + CO
mass density [kg/m3]
Conditions | 288.15 K | 293.15 K | 298.15 K
x2 = 0 | 1498.08 | 1488.64 | 1479.15
x2 = 0.0298 | 1487.35 | 1477.93 | 1468.46
x2 = 0.0492 | 1480.27 | 1470.88 | 1461.44
x2 = 0.0724 | 1471.76 | 1462.41 | 1453.01
x2 = 0.0942 | 1463.44 | 1454.14 | 1444.79
x2 = 0.1282 | 1450.19 | 1440.98 | 1431.7
x2 = 0.1586 | 1437.96 | 1428.83 | 1419.63
x2 = 0.2444 | 1401.12 | 1392.24 | 1383.3
x2 = 0.2956 | 1377.44 | 1368.73 | 1359.97
x2 = 0.3383 | 1356.51 | 1347.95 | 1339.33
x2 = 0.398 | 1325.26 | 1316.93 | 1308.55
x2 = 0.4393 | 1302.23 | 1294.08 | 1285.87
x2 = 0.4983 | 1267.1 | 1259.22 | 1251.28
x2 = 0.5505 | 1233.39 | 1225.77 | 1218.09
x2 = 0.6022 | 1197.32 | 1190.01 | 1182.62
x2 = 0.6352 | 1172.94 | 1165.78 | 1158.57
x2 = 0.6999 | 1121.29 | 1114.52 | 1107.71
x2 = 0.75 | 1077.55 | 1071.1 | 1064.61
x2 = 0.7996 | 1030.62 | 1024.5 | 1018.34
x2 = 0.8193 | 1011.24 | 1005.11 | 998.988
x2 = 0.8534 | 975.44 | 969.692 | 963.915
x2 = 0.91 | 911.539 | 906.188 | 900.813
x2 = 0.93 | 887.399 | 882.191 | 876.963
x2 = 0.9542 | 857.083 | 852.051 | 847
